# Test system: Yucatan Micro Pig (YMP) skin
# Assay: Skin permeability test, fluorescently-labeled insulin in skin extract and receiver solution, vertical Franz type diffusion cell (Examples 8, 12, 14, 18)
# Format: in vitro ADME
# Method: Yucatan Micro Pig (YMP) skin (by Charles River Laboratories Japan, Inc.) stored at −80° C. was thawed at room temperature (roughly 25° C.), and was then subjected to the fat removal (to have a skin thickness of roughly 2 mm). Thus, the YMP skin of roughly 2 cm square was prepared.
# To a receiver phase of the vertical Franz type diffusion cell (effective area: 0.785 cm^2), 5.0 mL of phosphate buffered saline (PBS of pH 7.4, stirred at 500 rpm) was added, and the above-described YMP skin (temperature of PBS on skin surface: 32.5° C.) was set. […]
# The skin was taken out after 24 hours, and washed with the extractant [solution of PBS, acetonitrile, and methanol mixed at 2:1:1 (v/v/v)]. […] The extracted solution thus obtained was filtered using a PTFE filter (0.20 μm), and then, the quantity of the fluorescently-labeled insulin in the solution was determined using the fluorescence spectrometer LS-55 (manufactured by PerkinElmer, Inc.) (each calculated as the average value of three tests). The fluorescence spectrometer measurement was made at an excitation wavelength of 495 nm and a measurement wavelength of 521 nm. […]
# The skin was taken out after 24 hours, and washed with the extractant [solution of PBS, acetonitrile, and methanol mixed at 2:1:1 (v/v/v)]. […] The fluorescence spectrometer measurement was made at an excitation wavelength of 495 nm and a measurement wavelength of 521 nm. […]
substance,measurement,value
polyoxyethylene lauryl ether,transdermal absorption enhancing effect of insulin,no transdermal absorption enhancing effect
